Reference: patent US6339045B1, “N-(unsubstituted or substituted)-4-substituted-6-(unsubstituted or substituted)phenoxy-2-pyridinecarboxamides or thiocarboxamides, processes for producing the same, and herbicides” (Kureha Kagaku Kogyo Kabushiki Kaisha, priority 1995, dated 2002)

Assays:
Experiment in all cases: Herbicidal effect by foliage and soil treatment
Format in all cases: in vivo
Settings in all cases: 10 g ai/10a, evaluated after 14 days
[1] = system: sicklepod (Cassia obtusifolia)
Outline: (§1)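 Post-emergence spray, cotyledon to bifoliate stage; Tween 20/water vehicle, fixed dose per area; greenhouse 19–25 °C; 14 d; visual growth rating vs untreated.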

[2] = system: common chickweed (Stellaria media)
Outline: as §1

[3] = system: common blackjack (Bidens pilosa)
Outline: as §1

[4] = system: velvetleaf (Abutilon theophrasti)
Outline: as §1

[5] = system: black nightshade (Solanum nigrum)
Outline: as §1

[6] = system: field bindweed (Convolvulus arvensis)
Outline: as §1

[7] = system: cleavers (Galium aparine)
Outline: as §1

[8] = system: wild chamomile (Matricaria chamomilla)
Outline: as §1

[9] = system: ivyleafspeedwell (Veronica hederaefolia)
Outline: as §1

[10] = system: redroot pigweed (Amaranthus retroflexus)
Outline: as §1

[11] = system: kediock (Sinapis arvensis)
Outline: as §1

SMILES | herbicidal activity rating, CO (Cassia obtusifolia) [1] | herbicidal activity rating, SM (Stellaria media) [2] | herbicidal activity rating, BP (Bidens pilosa) [3] | herbicidal activity rating, AT (Abutilon theophrasti) [4] | herbicidal activity rating, SN (Solanum nigrum) [5] | herbicidal activity rating, CA (Convolvulus arvensis) [6] | herbicidal activity rating, GA (Galium aparine) [7] | herbicidal activity rating, MC (Matricaria chamomilla) [8] | herbicidal activity rating, VH (Veronica hederaefolia) [9] | herbicidal activity rating, AR (Amaranthus retroflexus) [10] | herbicidal activity rating, SA (Sinapis arvensis) [11]
COc1cc(Oc2cccc(C(F)(F)F)c2)nc(C(=O)NCCSCC(F)(F)F)c1 [Compound I-94] | 5 (percentage of weeds killed was not less than 80%) | 4 (percentage of weeds killed was not less than 60% and less than 80%) | 4 (percentage of weeds killed was not less than 60% and less than 80%) | 5 (percentage of weeds killed was not less than 80%) | 5 (percentage of weeds killed was not less than 80%) | 5 (percentage of weeds killed was not less than 80%) | 5 (percentage of weeds killed was not less than 80%) | 4 (percentage of weeds killed was not less than 60% and less than 80%) | 5 (percentage of weeds killed was not less than 80%) | 5 (percentage of weeds killed was not less than 80%) | 5 (percentage of weeds killed was not less than 80%)
COc1cc(Oc2cccc(C(F)(F)F)c2)nc(C(=O)NO)c1 [Compound I-96, N-hydroxy-4-methoxy-6-{3-(trifluoromethyl)phenoxy}-2-pyridine carboxamide] | 5 (percentage of weeds killed was not less than 80%) | 5 (percentage of weeds killed was not less than 80%) | 4 (percentage of weeds killed was not less than 60% and less than 80%) | 3 (percentage of weeds killed was not less than 40% and less than 60%) | 5 (percentage of weeds killed was not less than 80%) | 3 (percentage of weeds killed was not less than 40% and less than 60%) | 5 (percentage of weeds killed was not less than 80%) | 1 (percentage of weeds killed was less than 20%) | 5 (percentage of weeds killed was not less than 80%) | 5 (percentage of weeds killed was not less than 80%) | 5 (percentage of weeds killed was not less than 80%)
CONC(=O)c1cc(OC)cc(Oc2cccc(C(F)(F)F)c2)n1 [Compound I-97, N-methoxy-4-methoxy-6-{3-(trifluoromethyl)phenoxy}-2-pyridine carboxamide] | 5 (percentage of weeds killed was not less than 80%) | 5 (percentage of weeds killed was not less than 80%) | 5 (percentage of weeds killed was not less than 80%) | 5 (percentage of weeds killed was not less than 80%) | 5 (percentage of weeds killed was not less than 80%) | 4 (percentage of weeds killed was not less than 60% and less than 80%) | 5 (percentage of weeds killed was not less than 80%) | 5 (percentage of weeds killed was not less than 80%) | 5 (percentage of weeds killed was not less than 80%) | 5 (percentage of weeds killed was not less than 80%) | 5 (percentage of weeds killed was not less than 80%)
CCCONC(=O)c1cc(OC)cc(Oc2cccc(C(F)(F)F)c2)n1 [Compound I-99, N-(n-propoxy)-4-methoxy-6-{3-(trifluoromethyl)phenoxy}-2-pyridine carboxamide] | 5 (percentage of weeds killed was not less than 80%) | 5 (percentage of weeds killed was not less than 80%) | 5 (percentage of weeds killed was not less than 80%) | 5 (percentage of weeds killed was not less than 80%) | 5 (percentage of weeds killed was not less than 80%) | 5 (percentage of weeds killed was not less than 80%) | 5 (percentage of weeds killed was not less than 80%) | 4 (percentage of weeds killed was not less than 60% and less than 80%) | 5 (percentage of weeds killed was not less than 80%) | 5 (percentage of weeds killed was not less than 80%) | 5 (percentage of weeds killed was not less than 80%)
C=CCONC(=O)c1cc(OC)cc(Oc2cccc(C(F)(F)F)c2)n1 [Compound I-100] | 5 (percentage of weeds killed was not less than 80%) | 4 (percentage of weeds killed was not less than 60% and less than 80%) | 4 (percentage of weeds killed was not less than 60% and less than 80%) | 5 (percentage of weeds killed was not less than 80%) | 5 (percentage of weeds killed was not less than 80%) | 4 (percentage of weeds killed was not less than 60% and less than 80%) | 5 (percentage of weeds killed was not less than 80%) | 4 (percentage of weeds killed was not less than 60% and less than 80%) | 5 (percentage of weeds killed was not less than 80%) | 5 (percentage of weeds killed was not less than 80%) | 5 (percentage of weeds killed was not less than 80%)
COc1cc(Oc2cccc(C(F)(F)F)c2)nc(C(=O)NOCCF)c1 [Compound I-102] | 5 (percentage of weeds killed was not less than 80%) | 4 (percentage of weeds killed was not less than 60% and less than 80%) | 5 (percentage of weeds killed was not less than 80%) | 4 (percentage of weeds killed was not less than 60% and less than 80%) | 5 (percentage of weeds killed was not less than 80%) | 4 (percentage of weeds killed was not less than 60% and less than 80%) | 5 (percentage of weeds killed was not less than 80%) | 3 (percentage of weeds killed was not less than 40% and less than 60%) | 5 (percentage of weeds killed was not less than 80%) | 5 (percentage of weeds killed was not less than 80%) | 5 (percentage of weeds killed was not less than 80%)
CCOCONC(=O)c1cc(OC)cc(Oc2cccc(C(F)(F)F)c2)n1 [Compound I-105] | 5 (percentage of weeds killed was not less than 80%) | 4 (percentage of weeds killed was not less than 60% and less than 80%) | 4 (percentage of weeds killed was not less than 60% and less than 80%) | 4 (percentage of weeds killed was not less than 60% and less than 80%) | 5 (percentage of weeds killed was not less than 80%) | 4 (percentage of weeds killed was not less than 60% and less than 80%) | 5 (percentage of weeds killed was not less than 80%) | 3 (percentage of weeds killed was not less than 40% and less than 60%) | 5 (percentage of weeds killed was not less than 80%) | 5 (percentage of weeds killed was not less than 80%) | 5 (percentage of weeds killed was not less than 80%)
